Assay results: a melting point compilation (Tetko et al.; mined from patent text by program, amines drawn as free bases though some values may be those of a salt)

SMILES	melting point [°C]
OC1CCc2[nH]c3ccccc3c2C1 (stereo unspecified)	140
CCC(=NN=C(c1ccc(Cl)cc1)c1ccc(OS(C)(=O)=O)cc1)NN=C(c1ccc(Cl)cc1)c1ccc(OS(C)(=O)=O)cc1	184 to 185
COc1cc2c(cc1OCc1ccccc1)CCC(=O)N2Cc1cc(OC)c(OC)c(OC)c1	129 to 130
COc1ccc(C2=NN(c3ccccc3)C(c3ccc(N)cc3)C2)cc1 (stereo unspecified)	164 to 166
CCOC(=O)c1c[nH]c2c(cc(Cl)c3c(=O)c(C(=O)OCC)c[nH]c32)c1=O	285 to 288
Cc1cc(C)n(C(=O)CCl)n1	62
O=CNNc1ccc(NC(=S)NC2CCCCC2)cc1	158 to 160
O=[N+]([O-])c1ccc(Oc2ccc3ccc(Oc4ccc([N+](=O)[O-])c(O)c4)cc3c2)cc1O	218 to 220
O=C1c2ccccc2C(=O)N1CC(=CF)CBr	86 to 87
Cc1cc(O)cc(O)c1C(=O)NNC(=O)C(O)c1ccccc1 (stereo unspecified)	188 to 189
O=[N+]([O-])c1cnc(N2CCN3CCC2CC3)nc1	135 to 139
N#Cc1cnc2sc(-c3ccc(CN)cc3)cc2c1Nc1ccc2[nH]ccc2c1	> 260
CS(=O)(=O)N(Cc1cccnc1)c1ccc(OCC(F)(F)F)cc1	69 to 70
CNC(=O)C(Cc1c[nH]c2ccccc12)NC(=O)C(CC(C)C)C(CC(=O)OC)SC(C)=O (stereo unspecified)	134 to 136
O=c1c2c(CBr)c(-c3ccc([N+](=O)[O-])cc3)sc2n(Cc2c(F)cccc2F)c(=O)n1-c1ccccc1	228 to 229
Cc1ccc(S(=O)(=O)c2cn(S(=O)(=O)c3ccccc3)c3ccccc23)cc1	189 to 190
CC1=NN(c2cc(-c3ccnc(Nc4cccc(Cl)c4)n3)ccn2)C(=O)CC1	189 to 192
CCN(CC)C(=O)COc1ccn2nc(-c3ccccc3)c(-c3ccc(=O)n(C(C)C)n3)c2c1	125 to 126
Oc1cc2c3ccc(O)c(O)c3n(CCCc3ccccc3)c2cc1O	246 to 252
O=C(O)Cc1ccc(OCc2ccccc2)c(OCc2ccccc2)c1	112 to 113
CCOC(=O)C(=CNC1CC1)C(=O)c1c(F)cc(F)c(F)c1F	107 to 108
CCN(CC1CCN(C(=O)NC)CC1)C(C)Cc1ccc(OC)cc1 (stereo unspecified)	97 to 98
Cc1nn(Cc2ccc(Cl)cc2)c(C)c1CC(=O)O	173 to 174
Nc1ncnc2c1ncn2[C@H]1C[C@@H](CO)C1	85 to 88

SMILES	melting point [°C]
Cc1cc(C(=O)NC2CC2)ccc1N1CCN(Cc2cc(C)c3c(c2)NC(=O)C(C)O3)CC1 (stereo unspecified)	241 to 242
Nc1ccc(C#CCCN2CC=C(c3ccccc3)CC2)nc1	136 to 137
C[C@@H]1c2sccc2CN(C)[C@H]1CCNC(=O)c1ccc(NS(C)(=O)=O)cc1 (relative stereo)	67 to 74
NC(=O)C1CCN(CCOc2ccccc2CCc2ccccc2)CC1	60 to 63
NS(=O)(=O)Oc1ccc(F)cc1	82.5 to 85.5
NC(=O)Nc1ccc2c(OCc3ccccc3-c3ccccc3)cccc2c1	159 to 161
CNc1cc(F)ccc1C(C)=O	52 to 53
O=c1c(Cl)c(Cl)cnn1-c1cc([N+](=O)[O-])c(Cl)cc1F	168
CC(=O)c1cccc(NC=O)c1	100 to 102
CCOC(=O)C1(CC(=O)O)C(=O)C=C(OCc2ccccc2)CC1c1ccc(C)cc1 (stereo unspecified)	217
CN1CCCC(OC(=O)Nc2ccc(Br)cc2)C1 (stereo unspecified)	127
Cc1cc([N+](=O)[O-])ccc1-c1ccc(-c2ccc([N+](=O)[O-])cc2C)o1	242 to 243
Cc1ccccc1-n1cnc(OC(C)C(=O)O)n1 (stereo unspecified)	151 to 153
C(#Cc1cnc2ccccc2c1)CCN1CC=C(c2ccccc2)CC1	94.3 to 95.8
CNc1ccc(CCl)cc1[N+](=O)[O-]	126 to 128
O=C(CCC(=O)Oc1cc(O)cc(O)c1)Oc1cc(O)cc(O)c1	213 to 217
CC(C)(CO)c1ccc(Br)cc1	46.5 to 48
CCc1nc(O)c2sccc2n1	233 to 237
Nc1c2c(nc3ccc(F)cc13)-c1ccccc1CC2	158 to 159
CCCNC(=O)COC1c2ccccc2C(=O)N1c1ccc2ccc(Cl)nc2n1 (stereo unspecified)	167
O=S(=O)(c1ccc(Cl)cc1)N1CCC[C@@H](Nc2nccc(-c3c(-c4cccc(CO)c4)nc4sccn34)n2)C1	150 to 155
Cn1cc(C[C@H]2NC(=O)[C@@H](CCCN)NC2=O)c2ccccc21	148
Cn1cc(C2=C(c3cn(C)c4cc(CO)ccc34)C(=O)NC2=O)c2ccccc21	245 to 246
O=c1ccc(-c2ccc(Cl)c(C(F)(F)F)c2)n[nH]1	249 to 251

SMILES	melting point [°C]
CC1CC(=O)c2c(SCc3ncn(C)n3)ccc(-c3nccs3)c2C1 (stereo unspecified)	130 to 131
O=C(O)CCCCCOc1ccc(C2OC3C(CO)OC(n4ccc(=O)[nH]c4=O)C3O2)cc1 (stereo unspecified)	158 to 160
O=C(O)CCSc1cccs1	110 to 112
O=C(Nc1cccc(-c2nnn[nH]2)c1)NC1N=C(c2ccccc2F)c2cccc(Cl)c2N(CC(=O)N2CC3CCC(CC3)C2)C1=O (stereo unspecified)	172 to 180
CC(=O)CCC(=O)C1=Cc2ccccc2C1	85
Cc1ccc(-c2nc(COc3ccc(CCCn4ccnc4)cc3)cs2)s1	78 to 79
CC(C)(C)OC(=O)N1CCN(CCC(N)=O)CC1	96 to 98
O=C(Nc1ccc(C(=O)O)cc1)OCc1ccccc1	> 235
CC(C)(C)SC(=O)C=CC1C(C(=O)OC(C#N)c2ccc(F)c(Oc3ccccc3)c2)C1(C)C (stereo unspecified)	96
O=C1c2ccccc2C(=O)N1C1CCC(c2cc(F)c(Br)cc2F)C1 (stereo unspecified)	44 to 47
CCOC(=O)N1CCc2nc(-c3ccncc3)cc(=O)n2CC1	191 to 193
Clc1ccc2c(c1)CCc1cccnc1C2=C1CCN(Cc2ccc(Cl)nc2)CC1	76.2 to 81.7
Cc1ccc(C(=O)N2CCc3cc(C(=O)NO)ccc3C2)cc1	105 to 108
NC(C(=O)O)c1cc(O)cc(O)c1[N+](=O)[O-] (stereo unspecified)	> 280
O=[N+]([O-])C1([N+](=O)[O-])CN(C(F)(F)F)C1	70 to 71
CCN(CCc1ccc(Nc2ncc3c(n2)-c2ccccc2C(c2cccc(Br)c2)C3)cc1)Cc1ccncc1 (stereo unspecified)	88 to 90
CCCCS(=O)(=O)c1ccccc1C(=O)O	72.5 to 73.5
Cc1onc(-c2ccccc2)c1C(=O)NCCCN1CCN(c2ccccc2OCC(F)(F)F)CC1	124 to 125
COc1ccc(CCSCC2CCC2)cc1	52
CC(C)(C)OC(=O)CC1CC(C=O)OC(C)(C)O1 (stereo unspecified)	71 to 73
O=C(Nc1ccc(-n2nc(C(F)(F)F)cc2C(F)(F)F)cc1)c1cc(F)cc(F)c1F	169 to 170
CCOC(=O)c1c(C)nc(C)n1Cc1ccc2oc(-c3ccccc3-c3nnn(C(c4ccccc4)(c4ccccc4)c4ccccc4)n3)c(Br)c2c1	98 to 100
COc1cc2c(-c3ccncc3)c(C(=O)O)oc(=O)c2cc1OC	> 250
